Consider 1 compound from patent US8299049B2, “Compositions comprising an extract of Tiarella polyphylla or compounds isolated therefrom for preventing and treating cancer diseases” (Korea Institute of Bioscience and Biotechnology, priority 2007, dated 2012).

The structures appear in SMILES notation.

Common to all, as to assay type: cell-based
Assay [1] deals with TM4SF5 null SNU449Cp cells. In words: Inhibitory effect on cell growth, TM4SF5-null control cells. As to conditions: 20 μM, 3 days. The procedure: (§1) After virus infection, pooled stable clones (control SNU449Cp and TM4SF5-expressing SNU449Tp cell clones) and single cell-driven stable clones (TM4SF5-expressing SNU449T16) were prepared by infecting SNU449 hepatocytes (Korean Cell Bank, Seoul, Korea) with retrovirus for empty pLNCX or pLNCX with TM4SF5. Parental and control cells (Cp) were maintained in RPMI-1640/10% FBS/0.25 μg/ml gentamycin (Calbiochem, San Diego, Calif.) without or with 200 μg/ml G418 (A.G. Scientific Inc., San Diego, Calif.), respectively, at 37° C. and 5% CO2. Cells endogenously expressing TM4SF5 or cells endogenously expressing no TM4SF5 (Korean Cell Bank) were maintained in either DMEM-H or RPMI-1640 media with 10% FBS (JBI Inc., Daegu, Korea).

Another assay has as its system TM4SF5. In words: Effect of TA treatment on TM4SF5 expression of P, Cp, Tp and T16 cells.
The test system of assay [2] is cells with endogenous TM4SF5 expression. Put plainly: Cell number of cell lines with endogenous TM4SF5 expression after TA treatment. As to conditions: TA 5 or 20 μM. The procedure: as §1
Next, to confirm that tiarellic acid (TA) is specific to TM4SF5, cytotoxicity of tiarellic acid (TA) was examined using cells with endogenous TM4SF5 expression. RT-PCR was performed using a primer set described in the following Table 1 under the conditions including 30 cycles of 94° C. for 30 sec, 55° C. for 30 sec, and 72° C. for 30 sec. Diverse cell lines were treated with tiarellic acid (TA) at a concentration of 5 or 20 μM.

Assay [3] relates to focal adhesion molecules in SNU449Cp cells expressing no TM4SF5. In words: Immunoblot of focal adhesion molecule expression and activation, SNU449Cp. The procedure: Whole cell lysates from cells under diverse experimental conditions were prepared, as described in the literature (Lee, S. Y. et al., Focal adhesion and actin organization by a cross-talk of TM4SF5 with integrin α2 are regulated by serum treatment, Exp Cell Res, 312, pp. 2983-99, 2006). For example, cells were subjected to electroporation (950 μF, 250 V) with a control GFP, wild-type focal adhesion kinase (FAK), paxillin, p130Cas cDNA. One day after electroporation, cells were treated with TA (20 μM) for the indicated periods. Cells cultured normally or treated with TA at different concentrations for the indicated periods were harvested using RIPA buffer. Control or tumor tissues from nude mice were frozen immediately after surgery using liquid N2. Tissues in the liquid N2 was homogenized using a mortar and pestle, and extracted using 0.1% SDS containing RIPA buffer. Standard Western blots of lysates were performed by using antibody against phospho-Y^397, Y^407, Y^577, Y^861, Y^925 FAK (BioSource International, Inc., Camarillo, Calif.), phospho-Y^416Src, c-Src, p15^INK4B, p16^INK4A (Santa Cruz Biotech., Santa Cruz, Calif.), FAK, p130Cas, paxillin, pY^118paxillin, active caspase-3 (BD Transduct. Lab., San Jose, Calif.), α-tubulin (Sigma, St Louis, Mo.), phopsho-S^473, or T^308Akt, Akt, phospho-Erk1/2, Erk1/2 (Cell Signaling Tech., Danvers, Mass.), and TM4SF5 (homemade). […]

For assay [4], the system named is TM4SF5-expressing cells (SNU449Tp, SNU449T16). In words: Degree of adhesion on fibronectin-precoated dishes, TM4SF5-expressing cells. As to conditions: 20 μM TA 24 hr, reseeded on fibronectin 1 hr. The procedure:
Thus, it could be thought that TA treatment induces anoikis of TM4SF5-expressing cells. To examine whether TA treatment affected cellular adhesion, the following procedure was performed prior to analysis of TA-meditated cell death, as described in the literature (Yang, X. et al., Palmitoylation supports assembly and function of integrin-tetraspanin complexes, J Cell Biol, 167, pp. 1231-40, 2004).
Cells were treated with 20 μM TA for 24 hr, and the floating cells were collected and reseeded on fibronectin-precoated dishes for 1 hr before determination of the degree of adhesion.

Regarding `C=C(C)C1CC[C@]2(C)CC[C@]3(C(=O)O)C(CCC4[C@@]5(C)CC[C@H](O)[C@@](C)(CO)C5CC[C@]43C)C12` (stereo partly drawn) [tiarellic acid (TA), 3,23-dihydroxy-20(29)-lupen-27-oic acid], in assay [1], the “inhibitory effect on cell growth” value is reported as “not observed”. Moreover, the “expression level of TM4SF5” value with TM4SF5 was “without affecting”. Moreover, in assay [2], the “growth of cells with endogenous TM4SF5 expression” value was “growth suppression”. The pErk1/2 entry in assay [3] (FIG. 11) is “slightly increased”. In addition, the “FAK and paxillin phosphorylations and p130Cas protein levels” value in assay [3] (TA up to 20 μM, 24 hrs) is “no effect”. The adhesion result in assay [4] is recorded as “significantly reduced adhesions”.
